Laboratory results: PubChem BioAssay AID1963873 (Molecular Pharmacology Branch, DTP, NCI, 2024)
pIC50: −log10 of the molar value.

Test system: 276233-004-R-J1-PDC KRAS spheroids with HUVEC/MSC, viability
Experiment: Anticancer human tumor 276233-004-R-J1-PDC patient-derived colon adenocarcinoma cell line growth inhibition [KRAS2]
Settings: for pIC50: curve of first compound; for viability, T/C: stronger effect = lower value
How it was run: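 KRAS-mutant tumor cells were grown as spheroids with HUVEC endothelial cells and human MSCs as stroma. Targeted agents were tested alone and with KRAS pathway inhibitors. Doses started at or near clinical Cmax, or 10 microM, descending half-log.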

[1] = second compound 0.1 µM, first compound 0.0316 µM
[2] = second compound 0.1 µM, first compound 0.1 µM
[3] = second compound 0.1 µM, first compound 0.316 µM
[4] = second compound 0.1 µM, first compound 1 µM
[5] = second compound 0.316 µM, first compound 0.0316 µM
[6] = second compound 0.316 µM, first compound 0.1 µM
[7] = second compound 0.316 µM, first compound 0.316 µM
[8] = second compound 0.316 µM, first compound 1 µM
[9] = second compound 1 µM, first compound 0.0316 µM
[10] = second compound 1 µM, first compound 0.1 µM
[11] = second compound 1 µM, first compound 0.316 µM
[12] = second compound 1 µM, first compound 1 µM
[13] = second compound 3.16 µM, first compound 0.0316 µM
[14] = second compound 3.16 µM, first compound 0.1 µM
[15] = second compound 3.16 µM, first compound 0.316 µM
[16] = second compound 3.16 µM, first compound 1 µM
[17] = second compound 10 µM, first compound 0.0316 µM
[18] = second compound 10 µM, first compound 0.1 µM
[19] = second compound 10 µM, first compound 0.316 µM
[20] = second compound 10 µM, first compound 1 µM
[21] = second compound 0.1 µM, first compound 0.00316 µM
[22] = second compound 0.1 µM, first compound 0.01 µM
[23] = second compound 0.316 µM, first compound 0.00316 µM
[24] = second compound 0.316 µM, first compound 0.01 µM
[25] = second compound 1 µM, first compound 0.00316 µM
[26] = second compound 1 µM, first compound 0.01 µM
[27] = second compound 3.16 µM, first compound 0.00316 µM
[28] = second compound 3.16 µM, first compound 0.01 µM
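Also: cells exposed to agents for seven days before viability read.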
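For viability, T/C in this document: 100% = DMSO vehicle control wells and lower values mean fewer viable cells.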

COc1cc2nccc(Oc3ccc(NC(=O)C4(C(=O)Nc5ccc(F)cc5)CC4)cc3)c2cc1OC + CNCc1ccccc1-c1csc(C(C)Nc2nc(C)nc3cc(OC)c(OC)cc23)c1
pIC50 (second compound 0.1 µM): < 5.00 | pIC50 (second compound 0.316 µM): < 5.00 | pIC50 (second compound 1 µM): 6.23 | pIC50 (second compound 3.16 µM): > 7.50 | pIC50 (second compound 10 µM): > 7.50 | viability, T/C [1]: 82.3% | viability, T/C [2]: 109% | viability, T/C [3]: 82.8% | viability, T/C [4]: 88.3% | viability, T/C (second compound 0.1 µM, first compound 3.16 µM): 80.9% | viability, T/C (second compound 0.1 µM, first compound 10 µM): 88.2% | viability, T/C [5]: 83.3% | viability, T/C [6]: 85% | viability, T/C [7]: 85.8% | viability, T/C [8]: 109% | viability, T/C (second compound 0.316 µM, first compound 3.16 µM): 83.2% | viability, T/C (second compound 0.316 µM, first compound 10 µM): 67.2% | viability, T/C [9]: 74.8% | viability, T/C [10]: 58.8% | viability, T/C [11]: 68.7% | viability, T/C [12]: 35.6% | viability, T/C (second compound 1 µM, first compound 3.16 µM): 15% | viability, T/C (second compound 1 µM, first compound 10 µM): 41.5% | viability, T/C [13]: 0.61% | viability, T/C [14]: 2.67% | viability, T/C [15]: 0.63% | viability, T/C [16]: 0.45% | viability, T/C (second compound 3.16 µM, first compound 3.16 µM): 0.77% | viability, T/C (second compound 3.16 µM, first compound 10 µM): 0.33% | viability, T/C [17]: 0.64% | viability, T/C [18]: 0.19% | viability, T/C [19]: 0.57% | viability, T/C [20]: 0.15% | viability, T/C (second compound 10 µM, first compound 3.16 µM): 0.14% | viability, T/C (second compound 10 µM, first compound 10 µM): 1.46%

CN(C)C/C=C/C(=O)Nc1cc2c(Nc3ccc(F)c(Cl)c3)ncnc2cc1O[C@H]1CCOC1 + C=CC(=O)N1CCN(c2nc(OCC3CCCN3C)nc3c2CCN(c2cccc4cccc(C)c24)C3)CC1CC#N
pIC50 (second compound 0.0316 µM): < 7.00 | pIC50 (second compound 0.1 µM): < 7.00 | pIC50 (second compound 0.316 µM): < 7.00 | pIC50 (second compound 1 µM): < 7.00 | pIC50 (second compound 3.16 µM): 9.04 | viability, T/C (second compound 0.0316 µM, first compound 0.000316 µM): 112% | viability, T/C (second compound 0.0316 µM, first compound 0.001 µM): 114% | viability, T/C (second compound 0.0316 µM, first compound 0.00316 µM): 91.3% | viability, T/C (second compound 0.0316 µM, first compound 0.01 µM): 102% | viability, T/C (second compound 0.0316 µM, first compound 0.0316 µM): 97.4% | viability, T/C (second compound 0.0316 µM, first compound 0.1 µM): 86.3% | viability, T/C (second compound 0.1 µM, first compound 0.000316 µM): 116% | viability, T/C (second compound 0.1 µM, first compound 0.001 µM): 93.8% | viability, T/C [21]: 91.3% | viability, T/C [22]: 85% | viability, T/C [1]: 88% | viability, T/C [2]: 85.7% | viability, T/C (second compound 0.316 µM, first compound 0.000316 µM): 87% | viability, T/C (second compound 0.316 µM, first compound 0.001 µM): 110% | viability, T/C [23]: 91.9% | viability, T/C [24]: 78.3% | viability, T/C [5]: 81.5% | viability, T/C [6]: 72.2% | viability, T/C (second compound 1 µM, first compound 0.000316 µM): 84.8% | viability, T/C (second compound 1 µM, first compound 0.001 µM): 78.8% | viability, T/C [25]: 70.5% | viability, T/C [26]: 83.6% | viability, T/C [9]: 84.2% | viability, T/C [10]: 78.7% | viability, T/C (second compound 3.16 µM, first compound 0.000316 µM): 67.5% | viability, T/C (second compound 3.16 µM, first compound 0.001 µM): 52.7% | viability, T/C [27]: 37.8% | viability, T/C [28]: 27.6% | viability, T/C [13]: 53.2% | viability, T/C [14]: 47.7%

CCN1CCN(Cc2ccc(Nc3ncc(F)c(-c4cc(F)c5nc(C)n(C(C)C)c5c4)n3)nc2)CC1 + C=CC(=O)N1CCN(c2nc(=O)n(-c3c(C)ccnc3C(C)C)c3nc(-c4c(O)cccc4F)c(F)cc23)C(C)C1
pIC50 (second compound 0.1 µM): < 6.00 | pIC50 (second compound 0.316 µM): < 6.00 | pIC50 (second compound 1 µM): < 6.00 | pIC50 (second compound 3.16 µM): < 6.00 | pIC50 (second compound 10 µM): < 6.00 | viability, T/C [21]: 85.7% | viability, T/C [22]: 105% | viability, T/C [1]: 83.5% | viability, T/C [2]: 98.2% | viability, T/C [3]: 88.1% | viability, T/C [4]: 106% | viability, T/C [23]: 100% | viability, T/C [24]: 78.8% | viability, T/C [5]: 82.4% | viability, T/C [6]: 81.8% | viability, T/C [7]: 101% | viability, T/C [8]: 125% | viability, T/C [25]: 95% | viability, T/C [26]: 118% | viability, T/C [9]: 93.7% | viability, T/C [10]: 88.8% | viability, T/C [11]: 110% | viability, T/C [12]: 101% | viability, T/C [27]: 92.7% | viability, T/C [28]: 101% | viability, T/C [13]: 91.2% | viability, T/C [14]: 80.2% | viability, T/C [15]: 74.2% | viability, T/C [16]: 119% | viability, T/C (second compound 10 µM, first compound 0.00316 µM): 62.9% | viability, T/C (second compound 10 µM, first compound 0.01 µM): 68.2% | viability, T/C [17]: 69.7% | viability, T/C [18]: 70.3% | viability, T/C [19]: 87.1% | viability, T/C [20]: 65.4%
